Experimental data as given in US9682118B1, “Inhibition of metastasis by cell penetrating peptides” (University of Mississippi Medical Center, priority 2006, dated 2017).

Test system: SKOV-3 cells
Assay: Boyden chamber migration assay
Format: cell-based
Conditions: SKOV-3, 8 μm pores, 24 h
Protocol: FIG. 14 is data related to a Boyden chamber assay. […] Cells were washed, fixed, stained with hematoxylin and 4 random fields were counted at 20× magnification. FIG. 14B is a set of images after cells were later incubated with Hoechst dye for 10 min. and images were obtained at 10× magnification.
In order to confirm the role of CPP-ELPs in preventing migration of SKOV-3 cells, a boyden chamber assay was performed (35). This assay involves a membrane with pore size of 8 μm. SKOV-3 cells are plated on one side of the membrane, and a chemoattractant (FBS) is placed on the opposite side of the membrane. The cells are allowed to migrate trough the pores toward the chemoattractant for […], and the cells which penetrated the membrane are quantified by cell counting and independently by Hoechst staining and fluorescence microscopy. […] Serum starvation of cells overnight ruled out the fact that proliferation was a contributing factor in this assay.

With “Tat (YGRKKRRQRRR; Tat CPP) [Tat peptide]” the “migration across the membrane toward FBS” value was “migrated across the membrane”.
